One block for each molecule: values may come before it.
Biological target: T1, IRAK4 (Homo sapiens, UniProt Q9NWZ3)
T1 construct: endogenous in cells; host or cells: OCI-LY10
T1 sequence (Q9NWZ3 1-460): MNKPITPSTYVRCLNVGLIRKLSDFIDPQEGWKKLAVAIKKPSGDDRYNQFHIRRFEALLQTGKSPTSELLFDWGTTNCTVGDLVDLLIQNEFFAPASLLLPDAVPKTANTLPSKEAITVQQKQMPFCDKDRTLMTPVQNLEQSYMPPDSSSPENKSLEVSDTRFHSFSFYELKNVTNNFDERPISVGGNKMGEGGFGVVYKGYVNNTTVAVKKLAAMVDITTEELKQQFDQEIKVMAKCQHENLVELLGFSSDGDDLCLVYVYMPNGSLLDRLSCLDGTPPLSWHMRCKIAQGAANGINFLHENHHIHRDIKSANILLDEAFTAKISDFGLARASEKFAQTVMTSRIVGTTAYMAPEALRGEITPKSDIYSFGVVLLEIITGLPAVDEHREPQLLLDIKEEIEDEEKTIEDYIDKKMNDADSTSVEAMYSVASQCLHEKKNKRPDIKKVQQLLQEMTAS
Assay: IRAK4 MSD Degradation in OCI-LY10
Format: cell-based
Details: OCI-LY10 cells, Meso Scale Discovery, incubated 4 to 24 hours
Method in brief: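 IRAK4 degradation was quantified by Meso Scale electrochemiluminescence (anti-IRAK4 capture and detection antibodies) in lysates of treated OCI-LY10 cells. Compounds were dosed at 8 concentrations (1:3 dilutions, top 1 to 10 μM) for 4 to 24 h; DC50 derived by three-parameter logistic fitting.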

Compound: CC(C)Nc1c(C(=O)N[C@H]2CC[C@H](CN3CCC(c4cccc5c(N6CCC(=O)NC6=O)cncc45)CC3)CC2)cnc2c1Oc1ccc(C#N)cc1O2 [I-310]
DC50: > 0.2 µM

Compound: COc1cc2nn([C@H]3CC[C@H](CN4CCN(c5ccc(N6CCC(=O)NC6=O)cc5)CC4)CC3)cc2cc1NC(=O)c1cccc(C(F)(F)F)n1 [I-312]
DC50: > 0.2 µM

Compound: COc1cc2nn([C@H]3CC[C@H](CN4CCN(c5ccc(N6CCC(=O)NC6=O)cn5)CC4)CC3)cc2cc1NC(=O)c1cccc(C(F)(F)F)n1 [I-313]
DC50: > 0.2 µM

Compound: CN(C[C@H]1CC[C@H](n2cc3cc(NC(=O)c4cccc(C(F)(F)F)n4)ncc3n2)CC1)C1CCN(c2ccc3c(N4CCC(=O)NC4=O)cncc3c2)CC1 [I-317]
DC50: 0.1 to 0.2 µM

Compound: O=C1CCN(c2cncc3cc(C4CCN(C[C@H]5CC[C@H](n6cc7cc(NC(=O)c8cccc(C(F)(F)F)n8)ncc7n6)CC5)CC4)ccc23)C(=O)N1 [I-318]
DC50: > 0.2 µM

Compound: CN(C[C@H]1CC[C@H](n2cc3cc(NC(=O)c4cccc(C(F)(F)F)n4)ccc3n2)CC1)C1CCN(c2ccc3c(N4CCC(=O)NC4=O)cncc3c2)CC1 [I-319]
DC50: 0.01 to 0.05 µM

Compound: O=C1CCN(c2cncc3cc(C4CCN(C[C@H]5CC[C@H](n6cc7cc(NC(=O)c8cccc(C(F)(F)F)n8)ccc7n6)CC5)CC4)ccc23)C(=O)N1 [I-321]
DC50: > 0.2 µM

Compound: Cn1c(=O)n(C2CCC(=O)NC2=O)c2cccc(N3CCN(C[C@H]4CC[C@H](n5cc6cc(NC(=O)c7cccc(C(F)(F)F)n7)ccc6n5)CC4)C(C)(C)C3)c21 (stereo partly drawn) [I-324]
DC50: 0.01 to 0.05 µM

Compound: Cn1c(=O)n(C2CCC(=O)NC2=O)c2cccc(C3CCN(C[C@H]4CC[C@H](n5cc6cc(NC(=O)c7cncc(C#N)c7)c(OC(F)(F)F)cc6n5)CC4)CC3)c21 (stereo partly drawn) [I-325]
DC50: > 0.2 µM

Compound: Cn1c(=O)n(C2CCC(=O)NC2=O)c2cccc(N3CCCN(C[C@H]4CC[C@H](n5cc6cc(NC(=O)c7cccc(C(F)(F)F)n7)ccc6n5)CC4)CC3)c21 (stereo partly drawn) [I-328]
DC50: 0.01 to 0.05 µM

Compound: COc1cc2nn([C@H]3CC[C@H](CN4CCN(c5cccc6c(N7CCC(=O)N(C)C7=O)cncc56)CC4)CC3)cc2cc1NC(=O)c1cccc(C(F)(F)F)n1 [I-330]
DC50: > 0.2 µM

Compound: COc1cc2nn([C@H]3CC[C@H](CN4CCN(c5c(OC)ccc6c(N7CCC(=O)NC7=O)cncc56)CC4)CC3)cc2cc1NC(=O)c1cccc(C(F)(F)F)n1 [I-332]
DC50: 0.01 to 0.05 µM

Compound: CN(CCCO[C@H]1C[C@H](Nc2cccc3c2C(=O)N(C2CCC(=O)NC2=O)C3=O)C1)C[C@H]1CC[C@H](n2cc3cc(NC(=O)c4cccc(C(F)(F)F)n4)ncc3n2)CC1 (stereo partly drawn) [I-353]
DC50: > 0.2 µM

Compound: CN(CCCO[C@H]1C[C@H](Nc2cccc3c2C(=O)N(C2CCC(=O)NC2=O)C3=O)C1)C[C@H]1CC[C@H](n2cc3cc(NC(=O)c4cccc(C(F)(F)F)n4)ccc3n2)CC1 (stereo partly drawn) [I-354]
DC50: > 0.2 µM

Compound: O=C1CCN(c2cncc3c(N4CCN(C[C@H]5CC[C@H](n6cc7cc(NC(=O)c8cccc(C(F)(F)F)n8)c(Cl)cc7n6)CC5)CC4)cccc23)C(=O)N1 [I-358]
DC50: 0.01 to 0.05 µM

Compound: Cn1c(=O)n(C2CCC(=O)NC2=O)c2cccc(N3CCN(C[C@H]4CC[C@H](n5cc6cc(NC(=O)c7cccc(C(F)(F)F)n7)c(Cl)cc6n5)CC4)CC3)c21 (stereo partly drawn) [I-360]
DC50: 0.01 to 0.05 µM

Compound: COc1cc2nn([C@H]3CC[C@H](CN4CCCN(c5cccc6c5n(C)c(=O)n6C5CCC(=O)NC5=O)CC4)CC3)cc2cc1NC(=O)c1cncc(C#N)c1 (stereo partly drawn) [I-367]
DC50: 0.01 to 0.05 µM

Compound: CC(C)Nc1cc(-n2ccc3cc(C(F)(F)F)cnc32)ncc1C(=O)N[C@H]1CC[C@H](CN2CCC(c3cccc4c3n(C)c(=O)n4C3CCC(=O)NC3=O)CC2)CC1 (stereo partly drawn) [I-368]
DC50: > 0.2 µM

Compound: CC(C)Nc1cc(-n2ccc3cc(C(F)(F)F)cnc32)ncc1C(=O)N[C@H]1CC[C@H](CN2CCN(c3cccc4c3n(C)c(=O)n4C3CCC(=O)NC3=O)CC2)CC1 (stereo partly drawn) [I-369]
DC50: 0.1 to 0.2 µM

Compound: O=C1CCN(c2cncc3c(C4CCN(C[C@H]5CC[C@H](n6cc7cc(NC(=O)c8cccc(C(F)(F)F)n8)c(Cl)cc7n6)CC5)CC4)cccc23)C(=O)N1 [I-370]
DC50: 0.01 to 0.05 µM

Compound: CC(C)Nc1cc(-n2ccc3cc(C#N)cnc32)ncc1C(=O)N[C@H]1CC[C@H](CN2CCN(c3cccc4c(N5CCC(=O)NC5=O)cncc34)CC2)CC1 [I-372]
DC50: < 0.01 µM

Compound: CC(C)Nc1cc(-c2ccc3cc(C#N)cnn23)ncc1C(=O)N[C@H]1CC[C@H](CN2CCN(c3cccc4c(N5CCC(=O)NC5=O)cncc34)CC2)CC1 [I-373]
DC50: 0.01 to 0.05 µM

Compound: CC(C)Nc1cc(-n2ccc3cc(C(F)(F)F)cnc32)ncc1C(=O)N[C@H]1CC[C@H](CN2CCN(c3ccc4c(c3)n(C)c(=O)n4C3CCC(=O)NC3=O)CC2)CC1 (stereo partly drawn) [I-374]
DC50: > 0.2 µM

Compound: O=C1CCN(c2cncc3cc(N4CCN(C[C@H]5CC[C@H](n6cc7cc(NC(=O)c8cccc(C(F)(F)F)n8)c(C(F)F)cc7n6)CC5)CC4)ccc23)C(=O)N1 [I-375]
DC50: 0.01 to 0.05 µM

Compound: COc1cc2nn([C@H]3CC[C@H](CN4CCN(c5ccc6c(N7CCC(=O)NC7=O)cncc6c5OC)CC4)CC3)cc2cc1NC(=O)c1cccc(C(F)(F)F)n1 [I-376]
DC50: 0.01 to 0.05 µM

Compound: CCc1cc2nn([C@H]3CC[C@H](CN4CCN(c5cccc6c(N7CCC(=O)NC7=O)cncc56)CC4)CC3)cc2cc1NC(=O)c1cccc(C(F)(F)F)n1 [I-377]
DC50: < 0.01 µM

Compound: CCc1cc2nn([C@H]3CC[C@H](CN4CCN(c5cccc6c5n(C)c(=O)n6C5CCC(=O)NC5=O)CC4)CC3)cc2cc1NC(=O)c1cccc(C(F)(F)F)n1 (stereo partly drawn) [I-378]
DC50: < 0.01 µM

Further lines, results first:

DC50: < 0.01 µM
Compound: Cn1c(=O)n(C2CCC(=O)NC2=O)c2cccc(N3CCN(C[C@H]4CC[C@H](n5cc6cc(NC(=O)c7cccc(C(F)(F)F)n7)c([S+](C)[O-])cc6n5)CC4)CC3)c21 (stereo partly drawn) [I-308]

DC50: < 0.01 µM
Compound: CC(C)Nc1c(C(=O)N[C@H]2CC[C@H](CN3CCC(c4cccc5c4n(C)c(=O)n5C4CCC(=O)NC4=O)CC3)CC2)cnc2c1Oc1cc(C#N)ccc1O2 (stereo partly drawn) [I-309]

DC50: < 0.01 µM
Compound: COc1cc2nn([C@H]3CC[C@H](CN4CCN(c5ccc(F)c6c(N7CCC(=O)NC7=O)cncc56)CC4)CC3)cc2cc1NC(=O)c1cccc(C(F)(F)F)n1 [I-311]

DC50: < 0.01 µM
Compound: COc1cc2nn([C@H]3CC[C@H](CN(C)C4CCN(c5ccc6c(N7CCC(=O)NC7=O)cncc6c5)CC4)CC3)cc2cc1NC(=O)c1cccc(C(F)(F)F)n1 [I-320]

DC50: < 0.01 µM
Compound: COc1cc2nn([C@H]3CC[C@H](CN4CCC(c5ccc6c(N7CCC(=O)NC7=O)cncc6c5)CC4)CC3)cc2cc1NC(=O)c1cccc(C(F)(F)F)n1 [I-322]

DC50: < 0.01 µM
Compound: Cc1ccc2c(c1C1CCN(C[C@H]3CC[C@H](n4cc5cc(NC(=O)c6cccc(C#N)n6)ccc5n4)CC3)CC1)n(C)c(=O)n2C1CCC(=O)NC1=O (stereo partly drawn) [I-323]

DC50: < 0.01 µM
Compound: Cn1c(=O)n(C2CCC(=O)NC2=O)c2cccc(C#CCN3CCN(C[C@H]4CC[C@H](n5cc6cc(NC(=O)c7cccc(C(F)(F)F)n7)c(C(C)(C)O)cc6n5)CC4)CC3)c21 (stereo partly drawn) [I-326]

DC50: < 0.01 µM
Compound: COc1cc2nn([C@H]3CC[C@@H](CN4CCN(CC#Cc5cccc6c5n(C)c(=O)n6C5CCC(=O)NC5=O)CC4)CC3)cc2cc1NC(=O)c1cccc(C(F)(F)F)n1 (stereo partly drawn) [I-327]

DC50: < 0.01 µM
Compound: CC(C)Nc1cc(-n2ccc3cc(C#N)cnc32)ncc1-c1cn([C@H]2CC[C@H](CN3CCC(c4cccc5c(N6CCC(=O)NC6=O)cncc45)CC3)CC2)nn1 [I-329]

DC50: < 0.01 µM
Compound: COc1cc2nn([C@H]3CC[C@H](CN4CCN(c5c(C)ccc6c(N7CCC(=O)NC7=O)cncc56)CC4)CC3)cc2cc1NC(=O)c1cccc(C(F)(F)F)n1 [I-331]

DC50: < 0.01 µM
Compound: COc1ccc2c(c1C1=CCN(C[C@H]3CC[C@H](n4cc5cc(NC(=O)c6cccc(C(F)(F)F)n6)ccc5n4)CC3)CC1)n(C)c(=O)n2C1CCC(=O)NC1=O (stereo partly drawn) [I-355]

DC50: < 0.01 µM
Compound: COc1cc2nn([C@H]3CC[C@H](CN4CCCN(c5ccc6c(N7CCC(=O)NC7=O)cncc6c5)CC4)CC3)cc2cc1NC(=O)c1cccc(C(F)(F)F)n1 [I-356]

DC50: < 0.01 µM
Compound: COc1cc2nn([C@H]3CC[C@H](CN4CC=C(c5cccc6c(N7CCC(=O)NC7=O)cncc56)CC4)CC3)cc2cc1NC(=O)c1cccc(C(F)(F)F)n1 [I-357]

DC50: < 0.01 µM
Compound: Cn1c(=O)n(C2CCC(=O)NC2=O)c2cccc(N3CCN(C[C@H]4CC[C@H](n5cc6cc(NC(=O)c7cccc(C(F)(F)F)n7)c(F)cc6n5)CC4)CC3)c21 (stereo partly drawn) [I-359]

DC50: < 0.01 µM
Compound: CC(C)Nc1cc(-n2ccc3cc(C#N)cnc32)ncc1C(=O)N[C@H]1CC[C@H](CN2CCN(c3cccc4c3n(C)c(=O)n4C3CCC(=O)NC3=O)CC2)CC1 (stereo partly drawn) [I-361]

DC50: < 0.01 µM
Compound: CC(C)Nc1cc(-c2ccc3cc(C#N)cnn23)ncc1C(=O)N[C@H]1CC[C@H](CN2CCN(c3cccc4c3n(C)c(=O)n4C3CCC(=O)NC3=O)CC2)CC1 (stereo partly drawn) [I-362]

DC50: < 0.01 µM
Compound: Cn1c(=O)n(C2CCC(=O)NC2=O)c2cccc(N3CCN(C[C@H]4CC[C@H](n5cc6cc(NC(=O)c7cccc(C(F)(F)F)n7)c(C#N)cc6n5)CC4)CC3)c21 (stereo partly drawn) [I-363]

DC50: < 0.01 µM
Compound: COc1cc2nn([C@H]3CC[C@H](CN4CCN(c5c(OC)ccc6c5n(C)c(=O)n6C5CCC(=O)NC5=O)CC4)CC3)cc2cc1NC(=O)c1cccc(C(F)(F)F)n1 (stereo partly drawn) [I-364]

DC50: < 0.01 µM
Compound: COc1cc2nn([C@H]3CC[C@H](CN4CCN(c5cccc6c5n(C)c(=O)n6C5CCC(=O)NC5=O)CC4)CC3)cc2cc1NC(=O)c1cncc(C)c1 (stereo partly drawn) [I-365]

DC50: < 0.01 µM
Compound: COc1cc2nn([C@H]3CC[C@H](CN4CC=C(c5ccc6c(c5)n(C)c(=O)n6C5CCC(=O)NC5=O)C4)CC3)cc2cc1NC(=O)c1cccc(C(F)(F)F)n1 (stereo partly drawn) [I-366]

DC50: < 0.01 µM
Compound: O=C1CCN(c2cncc3c(N4CCN(C[C@H]5CC[C@H](n6cc7cc(NC(=O)c8cccc(C(F)(F)F)n8)c(C(F)F)cc7n6)CC5)CC4)cccc23)C(=O)N1 [I-371]

Reference: patent US12150995B2, “IRAK degraders and uses thereof” (Kymera Therapeutics, Inc., priority 2020, dated 2024)
